From the supplement of paper PMC5579334 come the findings set out here.

± gives the standard deviation of the averaged measurements.

The test system of test [1] is S1507-2. Kind of test: drug sensitivity score (DSS, CellTiter-Glo viability, 72 h) (DSS (dimensionless)); higher = more sensitive; extreme values may be limits of the assay. An outline of the steps: (§1)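 For this screen, 384-well plates were preprinted with each compound at five concentrations in 10-fold steps and seeded with MPNST cell lines or primary human Schwann cells at 750–1000 cells per well. Incubation lasted 72 h at 37 °C, 5% CO2, and CellTiter-Glo ATP luminescence, scaled between vehicle and positive-control wells and averaged over duplicates where available, served as viability. Logistic fits with four parameters were applied. Relative IC50 (censored at the top concentration) and drug sensitivity score derive from these fits, and percent inhibition is at the top concentration.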
In general terms: ATP-based viability assays read luminescence as a measure of living cells.

Test [2] concerns HSC1 (primary human Schwann cells). Described as above. An outline of the steps: as §1
Test [3] relates to HS-Sch-2. The description is as above. An outline of the steps:
as §1

The subject of test [4] is ST8814. The test is described as above. An outline of the steps: as §1
Test [5] relates to S462. The test is described as above. An outline of the steps:
as §1

Test [6] has as its system HS-PSS. The description is as above. An outline of the steps: as §1
The subject of test [7] is HSC2 (primary human Schwann cells). The test is described as above. An outline of the steps: as §1
In test [8] the test system is YST-1. The test is described as above. An outline of the steps:
as §1

Test [9] concerns STS26T. Described as above. An outline of the steps: as §1
Test [10] has as its system S1507-2. Kind of test: % inhibition of CellTiter-Glo viability at highest tested concentration (72 h), relative to DMSO and benzethonium chloride controls; higher = more inhibition. An outline of the steps:
as §1

Test [11] concerns HSC1 (primary human Schwann cells). Described as above. An outline of the steps:
as §1

The subject of test [12] is HS-Sch-2. Described as above. An outline of the steps:
as §1

The test system of test [13] is ST8814. The description is as above. An outline of the steps: as §1
The test system of test [14] is S462. Described as above. An outline of the steps:
as §1

The subject of test [15] is HS-PSS. The description is as above. An outline of the steps: as §1
In test [16] the test system is HSC2 (primary human Schwann cells). Described as above. An outline of the steps: as §1
Test [17] relates to YST-1. The description is as above. An outline of the steps:
as §1

The test system of test [18] is STS26T. The test is described as above. An outline of the steps:
as §1

Test [19] concerns S1507-2. Kind of test: drug sensitivity score (DSS, CellTox-Green cytotoxicity, 72 h) (DSS (dimensionless)); higher = more cytotoxic; extreme values may be limits of the assay. An outline of the steps:
(§2)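 MPNST cell lines and primary human Schwann cells were grown for 72 h at 37 °C in 384-well plates containing five 10-fold compound dilutions. CellTox-Green, added before seeding at a final 1:1000 dilution, gave fluorescence from DNA released by disrupted cells, and signals were scaled to vehicle and positive-control wells. Curves were fitted with a four-parameter logistic model. Drug sensitivity score and relative IC50 come from these fits, with IC50 censored at the top concentration.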

Test [20] has as its system HSC1 (primary human Schwann cells). The description is as above. An outline of the steps:
as §2

In test [21] the test system is ST8814. The description is as above. An outline of the steps:
as §2

Test [22] concerns HS-PSS. Described as above. An outline of the steps: as §2
For test [23], the system named is HSC2 (primary human Schwann cells). The description is as above. An outline of the steps: as §2
For test [24], the system named is STS26T. Described as above. An outline of the steps: as §2

Broadly, the % inhibition is the relative decrease from the control value, in per cent. As for `O=C(O)CC[C@H]1CC[C@@](c2cc(F)ccc2F)(S(=O)(=O)c2ccc(Cl)cc2)CC1` [MK-0752] (max concentration tested 1000 nM), the drug sensitivity score worked out at 0 in the test with S1507-2 [1]; 1.49 in test [2]; 0 in the test with HS-Sch-2 [3]; 0 with ST8814 [4]; 0 in the test on S462 [5]; 0 with HS-PSS [6]. Besides, the drug sensitivity score in test [7] turned out to be 1.16; with YST-1 [8], 0; in the test on STS26T [9], 0; in the test with S1507-2 [19] it was 0.0001 ± 0.00014; in test [20] it was 0; in the test on ST8814 [21], 0. Also, the drug sensitivity score (with HS-PSS [22]; in test [23]; with STS26T [24]) was 0 in each case. The “% inhibition” value in the test on S1507-2 [10] is -8.17 ± 8.2%; in test [11] it was 13.4%; in the test on HS-Sch-2 [12] it was 10.9%; in the test with ST8814 [13] it was -3.6%; with S462 [14], 6.43 ± 3.5%; in the test with HS-PSS [15], 5.19%. Besides, the “% inhibition” value in [16] came to 15.4%; with YST-1 [17], 4.12%; in the test on STS26T [18] it was 4.15%.
For the compound `NC1(c2ccc(-c3nc4ccn5c(=O)[nH]nc5c4cc3-c3ccccc3)cc2)CCC1` [MK-2206] (max concentration tested 1000 nM), the drug sensitivity score with S1507-2 [1] amounted to 2.75 ± 0.87; in test [2], 0.083; with HS-Sch-2 [3], 0.49; in the test with ST8814 [4], 0; in the test on S462 [5], 0.275 ± 0.12; with HS-PSS [6], 1.05. The drug sensitivity score in [7] turned out to be 0; in the test with YST-1 [8], 4.28; in the test on STS26T [9], 2.7; in the test with S1507-2 [19] it was 0; in test [20], 0; in the test with ST8814 [21], 0. The drug sensitivity score (in the test on HS-PSS [22]; in test [23]; with STS26T [24]) was 0 throughout. The “% inhibition” value is 23.8 ± 1.6% with S1507-2 [10]; 11% in test [11]; 13.3% in the test with HS-Sch-2 [12]; 2.43% in the test with ST8814 [13]; 10.5 ± 1.5% in the test with S462 [14]; 18% with HS-PSS [15]. The entries for the “% inhibition” value (in [16]; in the test on YST-1 [17]; with STS26T [18]) were -3.64%, 46.2% and 29.9%, respectively.
In the case of `Cc1ccc(NC(=O)c2ccc(CN3CCN(C)CC3)cc2)cc1Nc1nc(-c2cccnc2)cs1` [Masitinib] (max concentration tested 10000 nM), the drug sensitivity score stood at 7.556 ± 0.038 in the test on S1507-2 [1]; 3.32 in test [2]; 5.27 with HS-Sch-2 [3]; 4.79 in the test with ST8814 [4]; 3.78 ± 0.14 in the test on S462 [5]; 7.12 in the test on HS-PSS [6]. Also, the drug sensitivity score was 3.5 in test [7]; 6.54 in the test on YST-1 [8]; 4.23 with STS26T [9]; 4.73 ± 0.42 in the test on S1507-2 [19]; 2.96 in test [20]; 4.31 in the test with ST8814 [21]. Moreover, the drug sensitivity score worked out at 1.06 in the test on HS-PSS [22], 0.804 in test [23] and 3.63 with STS26T [24]. For the same compound, the “% inhibition” value with S1507-2 [10] came out at 96.25 ± 0.36%; in test [11], 65.1%; with HS-Sch-2 [12], 97.2%; with ST8814 [13] it was 87.5%; with S462 [14], 71.4 ± 5.9%; in the test with HS-PSS [15] it was 83.9%. The “% inhibition” value in test [16] was found to be 54.6%; in the test on YST-1 [17] it was 90.8%; in the test with STS26T [18] it was 80.8%.
Take `Sc1ncnc2nc[nH]c12` [Mercaptopurine] (max concentration tested 10000 nM): the drug sensitivity score turned out to be 0 with S1507-2 [1]; 0 in [2]; 7.89 with HS-Sch-2 [3]; 10.2 in the test with ST8814 [4]; 5.81 ± 1.6 in the test on S462 [5]; 1.06 in the test on HS-PSS [6]. Moreover, the drug sensitivity score was determined as 0 in test [7]; 0.53 with YST-1 [8]; 7.5 in the test with STS26T [9]; 0 in the test with S1507-2 [19]; 0 in test [20]; 0 with ST8814 [21]. For the same compound, the drug sensitivity score in the test on HS-PSS [22] stood at 0; in test [23] it was 0; with STS26T [24] it was 0.135. Besides, the “% inhibition” value in the test on S1507-2 [10] was 7.52 ± 1.2%; in test [11], -2.23%; in the test on HS-Sch-2 [12], 59.9%; in the test on ST8814 [13] it was 43.7%; in the test on S462 [14], 62.5 ± 20%; in the test on HS-PSS [15], 18.8%. The figures for the “% inhibition” value (in test [16]; with YST-1 [17]; in the test with STS26T [18]) were 3.85%, 13.2% and 74.5%, respectively.
For `CN(Cc1cnc2nc(N)nc(N)c2n1)c1ccc(C(=O)N[C@@H](CCC(=O)O)C(=O)O)cc1` [Methotrexate] (max concentration tested 5000 nM), the drug sensitivity score in the test with S1507-2 [1] came out at 1.24 ± 1.8; in test [2], 0; in the test on HS-Sch-2 [3], 13.7; with ST8814 [4], 6.3; in the test with S462 [5] it was 19.9 ± 4.6; in the test with HS-PSS [6], 0. Further, the drug sensitivity score in test [7] worked out at 0.0797; in the test with YST-1 [8], 6.23; in the test on STS26T [9], 25.9; with S1507-2 [19], 0; in test [20], 0; with ST8814 [21], 0.851. The drug sensitivity score was 0.89 with HS-PSS [22], 0 in test [23] and 4.94 in the test with STS26T [24]. Moreover, the “% inhibition” value with S1507-2 [10] is -2.04 ± 33%; in [11] it was 3.1%; with HS-Sch-2 [12], 58.8%; with ST8814 [13] it was 38.2%; in the test with S462 [14] it was 70.2 ± 8.4%; in the test on HS-PSS [15] it was -5.89%. Besides, the “% inhibition” value came to 13.5% in test [16], 24.6% with YST-1 [17] and 62.5% in the test on STS26T [18].
Consider `C[C@H]1C[C@@H]2[C@H]([C@@H](O)C[C@@]3(C)[C@H]2CC[C@]3(O)C(=O)CO)[C@@]2(C)C=CC(=O)C=C12` [Methylprednisolone] (max concentration tested 10000 nM), for which the drug sensitivity score in the test on S1507-2 [1] amounted to 3.26 ± 4.4; in test [2] it was 0; with HS-Sch-2 [3] it was 0.61; in the test with ST8814 [4], 4.82; in the test on S462 [5] it was 0; with HS-PSS [6], 0. Also, the drug sensitivity score turned out to be 0 in test [7]; 0.96 with YST-1 [8]; 0 in the test with STS26T [9]; 0 in the test with S1507-2 [19]; 0 in test [20]; 0 in the test on ST8814 [21]. The drug sensitivity score (with HS-PSS [22]; in [23]; in the test with STS26T [24]) was 0 throughout. Moreover, the “% inhibition” value came to 17.3 ± 7% in the test with S1507-2 [10]; 7.99% in test [11]; 7.62% with HS-Sch-2 [12]; 22.4% in the test on ST8814 [13]; 4.77 ± 4.3% in the test on S462 [14]; 3.22% with HS-PSS [15]. In addition, the “% inhibition” value is 3.94% in test [16], 19.3% in the test on YST-1 [17] and 4.35% with STS26T [18].
